This note sets out measurements from ChEMBL document CHEMBL1133241, “Phenylacetamides as selective alpha-1A adrenergic receptor antagonists” (Bioorg Med Chem Lett, 2000).

For assay [1], the target named is T1, Alpha-1D adrenergic receptor (Homo sapiens, UniProt P25100).
T1 sequence (P25100 whole entry): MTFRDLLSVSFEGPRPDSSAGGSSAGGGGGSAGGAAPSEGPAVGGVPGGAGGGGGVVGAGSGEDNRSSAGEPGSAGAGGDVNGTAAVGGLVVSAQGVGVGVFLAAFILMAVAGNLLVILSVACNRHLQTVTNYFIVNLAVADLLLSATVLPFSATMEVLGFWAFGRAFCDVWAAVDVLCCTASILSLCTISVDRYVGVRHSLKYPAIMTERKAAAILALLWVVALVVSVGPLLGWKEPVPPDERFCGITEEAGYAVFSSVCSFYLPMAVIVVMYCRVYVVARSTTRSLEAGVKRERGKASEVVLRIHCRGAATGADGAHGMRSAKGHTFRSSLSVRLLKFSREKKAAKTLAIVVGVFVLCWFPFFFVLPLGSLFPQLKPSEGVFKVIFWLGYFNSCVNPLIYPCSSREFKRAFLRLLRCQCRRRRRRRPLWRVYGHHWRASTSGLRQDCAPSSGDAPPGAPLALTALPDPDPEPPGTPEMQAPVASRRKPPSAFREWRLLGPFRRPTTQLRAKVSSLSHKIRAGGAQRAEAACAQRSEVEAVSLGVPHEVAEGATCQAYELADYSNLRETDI
The experiment in a line: Inhibition of binding of [125I]HEAT to cloned human alpha-1D adrenergic receptor.

For assay [2], the target named is T2, Alpha-1A adrenergic receptor (Homo sapiens, UniProt P35348).
T2 sequence (P35348 whole entry): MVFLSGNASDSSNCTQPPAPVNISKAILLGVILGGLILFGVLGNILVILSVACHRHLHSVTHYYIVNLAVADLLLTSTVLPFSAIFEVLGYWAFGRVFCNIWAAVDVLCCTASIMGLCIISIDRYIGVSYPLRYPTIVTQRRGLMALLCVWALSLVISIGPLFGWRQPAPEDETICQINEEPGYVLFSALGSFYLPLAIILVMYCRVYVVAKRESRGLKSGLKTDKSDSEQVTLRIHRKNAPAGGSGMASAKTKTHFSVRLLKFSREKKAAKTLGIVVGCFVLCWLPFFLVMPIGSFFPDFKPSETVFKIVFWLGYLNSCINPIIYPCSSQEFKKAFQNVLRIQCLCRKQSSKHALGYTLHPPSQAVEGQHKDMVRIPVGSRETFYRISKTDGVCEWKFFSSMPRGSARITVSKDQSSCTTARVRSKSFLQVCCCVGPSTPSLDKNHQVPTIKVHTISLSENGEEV
The experiment in a line: Inhibition of binding of [125I]HEAT to cloned human alpha-1A adrenergic receptor.

For assay [3], the target named is T3, Alpha-1B adrenergic receptor (Homo sapiens, UniProt P35368).
T3 sequence (P35368 whole entry): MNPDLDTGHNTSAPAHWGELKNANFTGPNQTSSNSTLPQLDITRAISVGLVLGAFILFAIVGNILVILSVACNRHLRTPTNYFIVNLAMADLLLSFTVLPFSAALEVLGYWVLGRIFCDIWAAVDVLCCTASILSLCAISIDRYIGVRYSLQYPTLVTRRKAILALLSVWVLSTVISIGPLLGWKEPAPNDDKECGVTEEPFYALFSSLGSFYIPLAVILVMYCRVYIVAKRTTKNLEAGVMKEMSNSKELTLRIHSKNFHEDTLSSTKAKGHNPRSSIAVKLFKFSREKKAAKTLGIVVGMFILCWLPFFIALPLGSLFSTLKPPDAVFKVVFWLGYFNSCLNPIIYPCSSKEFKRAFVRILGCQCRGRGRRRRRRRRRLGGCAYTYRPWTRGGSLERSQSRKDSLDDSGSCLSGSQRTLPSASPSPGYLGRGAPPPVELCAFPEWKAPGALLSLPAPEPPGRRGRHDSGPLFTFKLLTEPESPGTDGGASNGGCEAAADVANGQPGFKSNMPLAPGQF
The experiment in a line: Inhibition of binding of [125I]HEAT to cloned human alpha-1B adrenergic receptor.

Turning to `Cc1ccccc1C1(C#N)CCN(CCCNC(=O)C(c2ccc(Cl)cc2)C(C)C)CC1` (stereo not given), the inhibition constant (Ki) in assay [1] worked out at 1300 nM; in assay [2] it was 6.4 nM; in assay [3] it was 870 nM.

As to `Cc1ccc(C(C(=O)NCCCN2CCC(c3ccccn3)CC2)c2ccc(C)cc2)cc1`, the results for the Ki in assay [1], in assay [2] and in assay [3] were 3600 nM, 27 nM and 670 nM, respectively.

As to `Cc1ccc(C(C(=O)NCCCN2CCC(c3ccccc3)CC2)c2ccc(C)cc2)cc1`, the values for the Ki in assay [1], in assay [2] and in assay [3] were 230 nM, 8.8 nM and 34 nM, respectively.

For `N#CC1(c2ccccc2)CCN(CCCNC(=O)C(c2ccccc2)c2ccccc2)CC1`, the results for the inhibition constant Ki in assay [1], in assay [2] and in assay [3] were 3300 nM, 28 nM and 840 nM, respectively.

Consider `Cc1ccc(C(C(=O)NCCCN2CCC(C#N)(c3ccccc3C)CC2)C(C)C)cc1` (stereo not given), for which the Ki in assay [1] came out at 1100 nM; in assay [2], 7.4 nM; in assay [3], 650 nM.

For `Cc1ccc(C(C(=O)NCCCN2CCC(C#N)(c3ccccc3C)CC2)c2ccc(C)cc2)cc1`, the Ki in assay [1] is 1100 nM; in assay [2], 1.3 nM; in assay [3], 360 nM.

As to `Cc1ccc(C(C(=O)NCCCN2CCN(c3ccccc3C)CC2)c2ccc(C)cc2)cc1`, the Ki in assay [1] turned out to be 36 nM; in assay [2] it was 1.1 nM; in assay [3], 6.6 nM.

Take `COC(=O)C1(c2ccccc2)CCN(CCCNC(=O)C(c2ccc(C)cc2)c2ccc(C)cc2)CC1`: the results for the Ki in assay [1], in assay [2] and in assay [3] were 960 nM, 5.1 nM and 450 nM, respectively.

Consider `Cc1ccccc1C1(C#N)CCN(CCCNC(=O)C(c2ccc(F)cc2)C(C)C)CC1` (stereo not given), for which the inhibition constant Ki in assay [1] turned out to be 2400 nM; in assay [2], 24 nM; in assay [3], 960 nM.

For `COC(=O)C1(c2ccccc2)CCN(CCNC(=O)CCc2ccc([N+](=O)[O-])cc2)CC1`, the Ki in assay [1] was 1500 nM; in assay [2] it was 380 nM; in assay [3] it was greater than 3000 nM.

With `COC(=O)C1(c2ccccc2)CCN(CCCNC(=O)CCc2ccc([N+](=O)[O-])cc2)CC1`, the Ki in assay [1] is 1300 nM; in assay [2] it was 240 nM; in assay [3], 910 nM.

`COc1ccccc1C1(C#N)CCN(CCCNC(=O)C(c2ccc(C)cc2)c2ccc(C)cc2)CC1`: the Ki in assay [1] was 710 nM; in assay [2], 7.5 nM; in assay [3] it was 570 nM.

`Cc1ccccc1C1(C#N)CCN(CCCNC(=O)C(c2cccc(F)c2)C(C)C)CC1` (stereo not given): the figures for the Ki in assay [1], in assay [2] and in assay [3] were 2700 nM, 3.4 nM and 680 nM, respectively.

With `Cc1ccc(C(C(=O)NCCCN2CCC(C#N)(c3ccccc3C(F)(F)F)CC2)c2ccc(C)cc2)cc1`, the Ki in assay [1] is 3200 nM; in assay [2], 22 nM; in assay [3], 1900 nM.

With `Cc1ccc(C(C(=O)NCCCN2CCC(C#N)(c3ccccn3)CC2)c2ccc(C)cc2)cc1`, the Ki in assay [1] was greater than 5000 nM; in assay [2] it was 25 nM; in assay [3], greater than 2000 nM.

With `Cc1ccc(C(C(=O)NCCCN2CCN(c3ccccc3)CC2)c2ccc(C)cc2)cc1`, the Ki amounted to 128 nM in assay [1], 12 nM in assay [2] and 23 nM in assay [3].

For the molecule `COC(=O)C1(c2ccccc2)CCN(CCCNC(=O)Cc2ccc([N+](=O)[O-])cc2)CC1`, the results for the Ki in assay [1], in assay [2] and in assay [3] were 6300 nM, 75 nM and 3300 nM, respectively.

For the molecule `COC(=O)C1(c2ccccc2)CCN(CCCNC(=O)Cc2ccc(C)cc2)CC1`, the Ki is 3400 nM in assay [1], 74 nM in assay [2] and greater than 3000 nM in assay [3].

For the molecule `Cc1ccc(C(C(=O)NCCCN2CCC(C#N)(c3ccccc3)CC2)c2ccc(C)cc2)cc1`, the Ki in assay [1] is 1400 nM; in assay [2], 7.3 nM; in assay [3], greater than 2000 nM.

On to `Cc1ccc(C(C(=O)NCCCN2CCC(C(N)=O)(c3ccccc3)CC2)c2ccc(C)cc2)cc1`, for which the Ki in assay [1] came out at 3300 nM; in assay [2], 570 nM; in assay [3] it was 570 nM.

Regarding `Cc1ccc(C(C(=O)NCCCN2CCC(C#N)(c3ccccc3Cl)CC2)c2ccc(C)cc2)cc1`, the Ki in assay [1] was 600 nM; in assay [2] it was 0.99 nM; in assay [3], 280 nM.

With `COC(=O)C1(c2ccccc2)CCN(CCCNC(=O)C(C)c2ccc([N+](=O)[O-])cc2)CC1` (stereo not given), the Ki in assay [1] is 1700 nM; in assay [2] it was 47 nM; in assay [3], 1700 nM.

In the case of `N#CC1(c2ccccc2)CCN(CCCNC(=O)C(c2ccccc2)C2CCCCC2)CC1` (racemic), the Ki worked out at 2500 nM in assay [1], 61 nM in assay [2] and 1100 nM in assay [3].

Turning to `N#CC1(c2ccccc2)CCN(CCCNC(=O)C(c2ccccc2)C2CCCC2)CC1` (racemic), the Ki in assay [1] is 2300 nM; in assay [2] it was 50 nM; in assay [3] it was 2000 nM.

Molecule `COC(=O)C1(c2ccccc2)CCN(CCCNC(=O)C2=C(C)N=C(C)/C(=C(/O)OC)C2c2ccc([N+](=O)[O-])cc2)CC1` (racemic) displayed a Ki in assay [1] of 1100 nM.

Take `CC(C)C(C(=O)NCCCN1CCC(C#N)(c2ccccc2)CC1)c1ccccc1` (racemic): the Ki in assay [1] worked out at 2900 nM; in assay [2], 72 nM; in assay [3], 1200 nM.

With `Cc1ccccc1C1(C#N)CCN(CCCNC(=O)C(c2ccc(F)c(F)c2)C(C)C)CC1` (single isomer, unassigned; (+)), the values for the inhibition constant (Ki) in assay [1], in assay [2] and in assay [3] were 2100 nM, 2 nM and 1400 nM, respectively.

Take `Cc1ccccc1C1(C#N)CCN(CCCNC(=O)C(c2ccc(F)c(F)c2)C(C)C)CC1` (single isomer, unassigned; (-)): the Ki in assay [1] was found to be 2600 nM; in assay [2] it was 50 nM; in assay [3] it was 1200 nM.

With `Cc1ccccc1C1(C#N)CCN(CCCNC(=O)C(c2ccc(F)c(F)c2)C(C)C)CC1` (stereo in doubt; 28), the Ki in assay [1] worked out at 1600 nM; in assay [2], 2 nM; in assay [3], 900 nM.
